28 compounds from ChEMBL document CHEMBL1146930, “Hydantoin derivatives as non-peptidic inhibitors of Ras farnesyl transferase” (Bioorg Med Chem Lett, 2006) can be followed below.

The structures appear in SMILES notation.

The assay has as its target Protein farnesyltransferase (Homo sapiens, UniProt P49354+P49356). Description: Inhibition of farnesyl transferase. Format: protein-complex assay.
What is called IC50 is the concentration at which inhibition is half-maximal. `CC1(c2cccc3ccccc23)C(=O)N(CCCn2ccnc2)C(=O)N1Cc1cccc(C#N)c1` (stereo not drawn) displayed an IC50 of 0.09 µM. This lies in the double-digit nanomolar range.

`CC1(c2cccc3ccccc23)C(=O)N(CCCn2ccnc2)C(=O)N1Cc1cccc(CNS(C)(=O)=O)c1` (stereo not drawn) had an IC50 of 1.2 µM.

`CC1(c2cccc3ccccc23)C(=O)N(CCCn2ccnc2)C(=O)N1Cc1ccc(Br)cc1` (stereo not drawn) returned an IC50 of 0.16 µM.

Consider `CC1(c2cccc3ccccc23)C(=O)N(CCCn2ccnc2)C(=O)N1Cc1cccc(Oc2ccccc2)c1` (stereo not drawn), for which the IC50 stood at 0.72 µM.

In turn, `COC(=O)[C@H](CCSC)NC(=O)CN1C(=O)N(CCCc2cnc[nH]2)C(=O)C1(C)c1cccc2ccccc12` (stereo partly drawn) returned an IC50 of 500 µM. Compared with the last compound, the IC50 is about 690-fold higher.

With `CSCC[C@H](NC(=O)CN1C(=O)N(CCc2cnc[nH]2)C(=O)C1(C)c1cccc2ccccc12)C(=O)O` (stereo partly drawn), the midpoint of inhibition, the IC50, lay at 4.8 µM.

`CC1(c2cccc3ccccc23)C(=O)N(CCCn2ccnc2)C(=O)N1Cc1ccc(C(=O)O)cc1` (stereo not drawn) had an IC50 of 0.2 µM.

The compound `COC(=O)[C@H](CCSC)NC(=O)CN1C(=O)N(Cc2cnc[nH]2)C(=O)C1(C)c1cccc2ccccc12` (stereo partly drawn) had an IC50 of 19000 µM.

`CC1(c2cccc3ccccc23)C(=O)N(CCCn2ccnc2)C(=O)N1Cc1cccc(Cl)c1` (stereo not drawn) registered an IC50 of 0.24 µM.

Compound `CC1(c2cccc3ccccc23)C(=O)N(CCCn2ccnc2)C(=O)N1Cc1ccc(S(C)(=O)=O)cc1` (stereo not drawn) gave an IC50 of 1.1 µM.

With `CSCC[C@H](NC(=O)CN1C(=O)N(Cc2c[nH]cn2)C(=O)C1(C)c1cccc2ccccc12)C(=O)O` (stereo partly drawn), the IC50 is 61 µM.

`CCOC(=O)CN1C(=O)N(CCCn2ccnc2)C(=O)C1(C)c1cccc2ccccc12` (stereo not drawn): the IC50 is 1 µM.

With `CC1(c2cccc3ccccc23)C(=O)N(CCCn2ccnc2)C(=O)N1Cc1ccccc1C#N` (stereo not drawn), half-maximal inhibition (IC50) was put at 1.3 µM. The IC50 values of the last two compounds are within 1.5-fold of each other.

Turning to `CC1(c2cccc3ccccc23)NC(=O)N(CCCn2ccnc2)C1=O` (stereo not drawn), it took 7.7 µM to reach half-maximal inhibition (IC50).

On to `CSCc1ccc(CN2C(=O)N(CCCn3ccnc3)C(=O)C2(C)c2cccc3ccccc23)cc1` (stereo not drawn), for which the IC50 amounted to 0.21 µM.

Take `CC1(c2cccc3ccccc23)C(=O)N(CCCn2ccnc2)C(=O)N1Cc1ccc(C#N)cc1` (stereo not drawn): the IC50 was determined as 0.9 µM. Against the preceding compound, the IC50 is about 4.3-fold higher.

`CC1(c2cccc3ccccc23)C(=O)N(CCCn2ccnc2)C(=O)N1Cc1cccc(C(F)(F)F)c1` (stereo not drawn) registered an IC50 of 1.7 µM. This IC50 lies about 1.9-fold higher than the previous one.

In turn, `CSCC[C@H](NC(=O)CN1C(=O)N(CCCc2c[nH]cn2)C(=O)C1(C)c1cccc2ccccc12)C(=O)O` (stereo partly drawn) showed an IC50 of 0.8 µM.

Turning to `CC1(c2cccc3ccccc23)C(=O)N(CCCn2ccnc2)C(=O)N1Cc1ccc(S(C)(=O)=O)c(C#N)c1` (stereo not drawn), half-maximal inhibition (IC50) required 0.73 µM.

The compound `CC1(c2cccc3ccccc23)C(=O)N(CCCn2ccnc2)C(=O)N1Cc1ccc(Oc2ccccc2)cc1` (stereo not drawn) displayed an IC50 of 0.75 µM.

With `CC1(c2cccc3ccccc23)C(=O)N(CCCn2ccnc2)C(=O)N1Cc1ccccc1CNS(C)(=O)=O` (stereo not drawn), the IC50 was found to be 0.5 µM.

Regarding `CCOC(=O)CN1C(=O)N(CCCc2cncn2C)C(=O)C1(C)c1cccc2ccccc12` (stereo not drawn), the IC50 was 2.8 µM.

In turn, `CC1(c2cccc3ccccc23)C(=O)N(CCCn2ccnc2)C(=O)N1Cc1cccc(Br)c1` (stereo not drawn) gave an IC50 of 0.37 µM.

In turn, `CSc1ccc(CN2C(=O)N(CCCn3ccnc3)C(=O)C2(C)c2cccc3ccccc23)cc1` (stereo not drawn) returned an IC50 of 0.7 µM.

Regarding `COC(=O)[C@H](CCSC)NC(=O)CN1C(=O)N(CCc2cnc[nH]2)C(=O)C1(C)c1cccc2ccccc12` (stereo partly drawn), half-maximal inhibition (IC50) required 2500 µM.

`CC1(c2cccc3ccccc23)NC(=O)N(CCCc2cnc[nH]2)C1=O` (stereo not drawn) had an IC50 of 40 µM.

Consider `CSc1ccc(CN2C(=O)N(CCCn3ccnc3)C(=O)C2(C)c2cccc3ccccc23)cc1C#N` (stereo not drawn), for which 0.08 µM corresponded to half-maximal inhibition (IC50).

Take `CC1(c2cccc3ccccc23)C(=O)N(CCCn2ccnc2)C(=O)N1Cc1ccc(CNS(C)(=O)=O)cc1` (stereo not drawn): 0.35 µM corresponded to half-maximal inhibition (IC50).
